According to US7307101B2, “Use of 20-HETE synthesizing enzyme inhibitors as therapy for cerebral vascular disease” (MCW Research Foundation, Inc., priority 2000, dated 2007):
Several values for one entry are separate records, joined by “and”; a condition that tells them apart may be missing. Identical values can stand only once.

Experiments:
[1] = biological target: human 20-HETE synthesizing enzyme; experiment: Formation of 20-HETE by human renal microsomes; format: biochemical; conditions: read-out: IC50, formation of 20-HETE by human renal microsomes
Experimental: All reactions were terminated by acidification with 1% formic acid. Equal volume of acetonitrile was added and finally 50% acetonitrile mixtures were subjected to HPLC analysis.

[2] = biological target: 20-HETE synthesizing enzyme; experiment: 20-HETE formation in rat renal microsomes ([3H]-AA, Example 3); format: biochemical
Experimental: All procedure was carried out at 4° C. Renal cortex was pooled from twenty male SHR rats (6 weeks of age). They were homogenized extensively in lysis buffer (20 mM HEPES, pH 7.4, 1 mM EDTA, 100 μM p-(amidinophenyl)metanesulfonyl fluoride and 250 mM sucrose), and centrifuged at 16,000×g for 10 min. Supernatant was further centrifuged at 16,000×g for 30 min. Soluble fraction was collected and centrifuged at 200,000×g for 30 min. The resulting pellet was suspended in 50 mM MOPS buffer.
The reaction was terminated by adding formic acid and acetonitrile to a final concentration of 1% and 50%, respectively.

[3] = biological target: CYP3A4 (Homo sapiens, UniProt P08684); experiment: in vitro; conditions: microsomes
Description: (§1) Microsomes prepared from the livers of 15 humans was purchased from Nippon Nosanko.

[4] = biological target: CYP2D6 (Homo sapiens, UniProt P10635); experiment: in vitro
Description: as §1

[5] = biological target: T1, CYP2C19 (Homo sapiens, UniProt P33261); experiment: CYP2C19 activity in human liver microsomes; format: in vitro ADME
T1 construct: The enzyme/substrate contained buffer, human liver microsomes and the following substrates; tissue Nippon Nosanko; host or cells: pooled human liver microsomes (15 donors)
Description: as §1

[6] = Physiological parameters (MAP, endtidal pCO2) during the SAH experiment; format: in vivo, rat; conditions: rats, any time
Experimental: (§2) Surgical preparation. Rats were anesthetized with ketamine (Ketaject® 20 mg/kg i.m.) and thiobutabarbital sodium (Inactin® 50 mg/kg i.p.). A cannula was placed in the trachea and the rats were artificially ventilated using a small animal ventilator (SAR-830, CWE, Inc., Ardmore, Pa.) with a mixture of 30% O2 in N2. The femoral vein was cannulated for the infusion of drug and the rats received an i.v. infusion of 0.9% NaCl solution at a rate of […] to replace fluid losses. The femoral artery was cannulated for measurement of mean arterial pressure (MAP) and arterial blood gases. Endtidal partial pressure of carbon dioxide (pCO2) was controlled at 38 mmHg by adjusting the minute ventilation according to the reading of an CO2 analyzer (Capstar-100 IITC, Inc., Woodland Hills, Calif.). Blood samples were collected at the beginning and end of the experiment and analyzed using a blood gas analyzer (ABL 300, Radiometer, Copenhagen, Denmark) to validate the endtidal pCO2 readings. Anesthesia was maintained by administering additional amounts of thiobutabarbital (8 mg/kg i.v.) as needed. Rectal body temperature was maintained at 37±1° C.

[7] = tested on: rats with SAH; experiment: Effect on rCBF after SAH, drug given before SAH; format: in vivo, rat
Experimental: Animals. Experiments were performed on male Sprague-Dawley rats (9-12 weeks old), purchased from Harlan Sprague-Dawley, Inc. (Indianapolis, Ind.). The rats were housed in an Animal Care Facility at the Medical College of Wisconsin, which is approved by the American Association for the Accreditation of Laboratory Animal Care. All protocols involving animals received approval by the Animal Care Committee of the Medical College of Wisconsin.
as §2
Induction of SAH and measurement of cerebral blood flow. SAH was induced by injection of 0.3 ml autologous arterial blood into the Cisterna Magna using a modification of a posterior cranio-cervical approach of a model of SAH. Delgado T J et al., Stroke 16: 595-602 (1985); Solomon R A et al., Stroke 16: 58-64 (1985). The head of the rat was placed in a stereotactic head holder and the atlanto-occipital membrane was exposed by bluntly separating the overlying neck muscles in the midline. The occipital bone and the atlas were visualized. A 30 gauge needle attached to PE-10 was inserted using a stereomicroscope into the Cistema Magna by penetrating the atlanto-occipital membrane. Then, 0.3 ml of freshly drawn unheparinized arterial blood was injected into the Cistema Magna at a rate of 35 μl/min using a syringe pump. This created a massive SAH that was confirmed in all rats at autopsy. Blood was found overlying the cerebello-medullary junction posteriorly and around the basal artery and the vessels of the Circle of Willis.
Cerebral blood flow (CBF) was continuously measured using laser Doppler flowmetry through a thinned cranial window. […] A PF 103 laser Doppler flow (LDF) probe was positioned over the cranial window and CBF was monitored using a PF-3 laser Doppler flowmeter (Perimed, Stockholm, Sweden).
Other animals received 17-ODYA (1.5 nmol) or vehicle in a volume of 50 μl that was injected directly into the Cistema Magna using a micromanipulator and a 30 gauge needle. The CBF recorded over the last 5 minutes of the control period immediately before initiation of SAH served as the control value. […] CBF was recorded for 2 min intervals at 10, 20, 30, 60, 90 and 120 minutes after completion of the injection of the blood. The CBF data are expressed as percentage change from control.

[8] = tested on: 20-HETE in CSF; experiment: 20-HETE concentration in CSF after SAH; format: in vivo, rat; conditions: rats, 2 hr after SAH, drug given prior to SAH
Experimental: Measurement of 20-HETE in CSF. At the end of each experiment, CSF was collected from the Cisterna Magna using a 1 ml syringe and a 30 gauge needle. […] 20-HETE concentration in CSF was measured using a new fluorescent HPLC assay that was recently described. […] Briefly, 50 ng of an internal standard 20-hydroxyeicosa-6(Z), 15(Z)-dienoic acid (WIT-002) was added to the CSF samples (50 μl). The samples were extracted with 1 mL of ethyl acetate, the extract was dried under argon and the lipid fraction was purified on a Sep-Pak Vac™ column (cat. no. WAT054955, Waters Corporation, Milford, Mass.). […] N,N-diisopropylethylamine (10 μl) was added to catalyze the reaction. The sample was reacted for 30 min at room temperature. […] The amount of 20-HETE in a sample was determined by comparing the area of the 20-HETE peak to that of the internal standard.

[9] = given systemically; cited from earlier work
[10] = biological target: CYP2C9 (Homo sapiens, UniProt P11712); experiment: in vitro
Description: as §1

[11] = tested on: 20-HETE formation; conditions: read-out: IC50 for inhibition of 20-HETE formation; cited from earlier work
[12] = tested on: cerebral arteries; conditions: read-out: EC50, constriction of cerebral arteries; cited from earlier work
[13] = tested on: cerebral blood flow; conditions: intracerebroventricular injection; cited from earlier work
[14] = human, microsomes, % Inhibition (duplicate) CYP2D6
[15] = positive control, concentration not given
[16] = only at very high concentrations

CYP2D6, sequence (P10635 whole entry): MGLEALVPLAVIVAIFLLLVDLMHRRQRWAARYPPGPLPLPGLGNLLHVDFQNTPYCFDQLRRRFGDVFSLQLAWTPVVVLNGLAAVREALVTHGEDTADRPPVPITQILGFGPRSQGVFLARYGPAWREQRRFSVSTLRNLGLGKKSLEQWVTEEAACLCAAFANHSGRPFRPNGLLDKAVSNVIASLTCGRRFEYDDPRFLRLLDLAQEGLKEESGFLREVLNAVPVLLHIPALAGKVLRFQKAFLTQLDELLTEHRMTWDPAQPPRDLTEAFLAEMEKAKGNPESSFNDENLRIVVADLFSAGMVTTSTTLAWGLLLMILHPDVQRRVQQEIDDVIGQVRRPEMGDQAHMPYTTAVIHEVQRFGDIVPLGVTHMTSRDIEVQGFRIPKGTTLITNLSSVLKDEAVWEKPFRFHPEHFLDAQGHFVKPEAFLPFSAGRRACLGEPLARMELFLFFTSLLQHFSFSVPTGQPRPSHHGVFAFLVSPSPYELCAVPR
CYP2C9, sequence (P11712 whole entry): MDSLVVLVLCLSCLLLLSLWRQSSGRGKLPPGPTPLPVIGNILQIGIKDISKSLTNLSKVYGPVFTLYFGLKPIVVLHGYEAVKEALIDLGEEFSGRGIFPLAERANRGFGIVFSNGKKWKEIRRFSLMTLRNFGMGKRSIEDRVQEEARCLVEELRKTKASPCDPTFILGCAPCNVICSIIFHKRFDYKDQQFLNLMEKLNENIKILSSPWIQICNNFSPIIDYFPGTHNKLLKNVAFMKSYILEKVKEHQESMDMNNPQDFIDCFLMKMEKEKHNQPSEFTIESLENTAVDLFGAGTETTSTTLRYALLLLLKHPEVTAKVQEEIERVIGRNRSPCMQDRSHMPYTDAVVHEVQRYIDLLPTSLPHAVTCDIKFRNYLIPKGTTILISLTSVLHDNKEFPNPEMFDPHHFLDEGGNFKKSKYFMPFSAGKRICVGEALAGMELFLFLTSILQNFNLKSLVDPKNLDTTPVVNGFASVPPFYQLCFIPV
T1 sequence (P33261 whole entry): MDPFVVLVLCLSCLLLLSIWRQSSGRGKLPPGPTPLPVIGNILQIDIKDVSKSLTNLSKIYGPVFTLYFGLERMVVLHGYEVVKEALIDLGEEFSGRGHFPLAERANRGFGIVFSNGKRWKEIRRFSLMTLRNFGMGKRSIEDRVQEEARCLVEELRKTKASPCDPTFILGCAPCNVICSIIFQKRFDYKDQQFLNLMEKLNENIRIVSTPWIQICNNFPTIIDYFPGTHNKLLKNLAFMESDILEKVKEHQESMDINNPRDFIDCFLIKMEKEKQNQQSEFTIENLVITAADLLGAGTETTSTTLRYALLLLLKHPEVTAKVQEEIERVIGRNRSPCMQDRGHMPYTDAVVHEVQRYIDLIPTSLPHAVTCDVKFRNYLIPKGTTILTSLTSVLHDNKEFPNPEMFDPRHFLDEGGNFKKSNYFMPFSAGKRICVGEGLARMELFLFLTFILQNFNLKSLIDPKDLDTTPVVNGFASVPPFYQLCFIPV
CYP3A4, sequence (P08684 whole entry): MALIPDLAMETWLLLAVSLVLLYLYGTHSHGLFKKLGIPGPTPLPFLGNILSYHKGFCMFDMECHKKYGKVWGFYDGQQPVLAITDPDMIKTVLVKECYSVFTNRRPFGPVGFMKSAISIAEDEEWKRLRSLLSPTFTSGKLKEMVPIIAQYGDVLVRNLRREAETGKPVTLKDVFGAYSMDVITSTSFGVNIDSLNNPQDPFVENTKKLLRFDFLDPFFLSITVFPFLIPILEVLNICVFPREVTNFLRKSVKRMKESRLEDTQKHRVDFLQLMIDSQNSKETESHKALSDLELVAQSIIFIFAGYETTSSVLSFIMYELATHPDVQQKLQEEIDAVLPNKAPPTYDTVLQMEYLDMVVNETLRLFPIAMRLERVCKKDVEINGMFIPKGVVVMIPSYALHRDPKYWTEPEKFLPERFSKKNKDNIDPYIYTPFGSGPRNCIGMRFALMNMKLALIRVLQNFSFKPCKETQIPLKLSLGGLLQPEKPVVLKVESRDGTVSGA

Compound: Nn1nnc2ccccc21 [1-ABT, 1-aminobenzotriazole]
- IC50 [1]: 38.5 ± 14.9 µM
- IC50, formation of both EETs and 20-HETE ([2]; SHR rat renal microsomes, nonselective inhibitor): approximately 20 μg/ml
- IC50 ([2]; read-out: IC50, formation of both EETs and 20-HETE (molar), SHR rat renal microsomes, nonselective inhibitor): ~150 µM
- % Inhibition (duplicate) CYP3A4 ([3]; 100 µM): 81%
- % Inhibition (duplicate) CYP2D6 ([4]; human, microsomes, 100 µM): 42%
- inhibition at 100 µM [4, 14]: 40 to 80%
- % Inhibition (duplicate) CYP2C19 ([5]; inhibitor 100 μM, 100 µM): 40-80% and 75%

Compound: C#CCCCCCCCCCCCCCCCC(=O)O [17-ODYA, 17-Octadecynoic acid]
- IC50 [1]: 1.8 ± 0.8 µM
- MAP (blood pressure) versus vehicle [6]: no difference
- endtidal pCO2 versus vehicle [6]: no significant differences
- fall in cerebral blood flow following SAH ([7]; 1.5 nmol into the Cisterna Magna of rats): completely blocked
- reduction of the initial fall in rCBF at 10 min ([7]; rats pretreated before SAH, HET0016 10 mg/kg i.v. 30 min prior, 17-ODYA 1.5 nmol intrathecally): about 40%
- time after induction of SAH within which rCBF recovered fully to values not different from control ([7]; rats pretreated before SAH, HET0016 10 mg/kg i.v., 17-ODYA 1.5 nmol intrathecally): ≤ 90 min
- concentration of 20-HETE in the CSF versus vehicle [8]: significantly lower concentration
- crossing of the blood brain barrier [9]: does not cross the blood brain barrier
- % Inhibition (duplicate) CYP3A4 ([3]; 10 µM): 29%
- inhibition at 10 µM ([3]; % Inhibition (duplicate) CYP3A4): 20 to 30%
- % Inhibition (duplicate) CYP2C9 ([10]; human, microsomes, 10 µM): 23%
- inhibition at 10 µM ([10]; human, microsomes, % Inhibition (duplicate) CYP2C9): 20 to 30%
- inhibition at 10 µM [4, 14]: -3%
- IC50 [11]: 1 µM
- inhibition at 10 µM ([5]; human, human liver microsomes, probe 14C-(S)-mephenyloin (4′-hydroxylation), inhibitor 10 μM, read-out: % Inhibition (duplicate) CYP2C19): 10%

Compound: O=C(O)CCCC=CCC=CCC=CCC=CCCCCCO [20-HETE, 20-hydroxyeicosetetraenoic acid]
- EC50 [12]: < 0.01 µM

Compound: CS(=O)(=O)NC(=O)CCCCCCCCCC=C(Br)Br [DDMS]
- crossing of the blood brain barrier [9]: does not cross the blood-brain barrier
- effect on baseline cerebral blood flow [13]: no effect
- IC50 [11]: 3 µM

Compound: C=C[C@H]1C[N@@]2CC[C@H]1C[C@@H]2[C@@H](O)c1ccnc2ccc(OC)cc12 [Quinidine]
- % Inhibition (duplicate) CYP2D6 [4, 15]: 91%

Compound: Clc1ccc(COC(Cn2ccnc2)c2ccc(Cl)cc2Cl)c(Cl)c1 (stereo not drawn) [miconazole]
- concentrations at which the formation of 20-HETE was inhibited [2, 16]: 10 to 20 µg/mL
- concentrations at which the formation of 20-HETE was inhibited (molar) [2, 16]: 21 to 42 µM

Compound: Nc1ccc(S(=O)(=O)Nc2ccnn2-c2ccccc2)cc1 [sulfaphenazol]
- % Inhibition (duplicate) CYP2C9 [10, 15]: 91%
